Data: US20090068290A1, “BIFEPRUNOX DOSES FOR TREATING SCHIZOPHRENIA” (priority 2006, published 2009)

Experiments:
[1] = tested on: adult subjects with schizophrenia; assay: PANSS negative symptom subscale score, Clinical Study Two; assay type: in vivo, human; conditions: Bifeprunox 40 mg, LOCF, ITT
Description: (§1) Rating scale assessments were performed weekly, except for week 5, to measure the change from baseline to endpoint of the PANSS total score. Other assessments included: PANSS positive symptom subscale score, PANSS negative symptom subscale score, PANSS general pschopathology subscale score, BPRS total score, BPRS psychosis score, the CGI-S score, the CGI-I score, responder rates based on the PANSS total score, and the Calgary Depression Scale for Schizophrenia (CDSS). […]
(§2) Subjects who completed this study had the option to continue in the long-term. […] Risperidone-treated subjects were titrated from 2 mg to 6 mg daily over a three-day period and were subsequently maintained at 6 mg/day for the remainder of the treatment period. […] Blood samples were also obtained at Screening/Baseline, Week 3, and Week 6 for clinical laboratory assessments.

[2] = tested on: adult subjects with schizophrenia; assay: Calgary Depression Scale for Schizophrenia (CDSS), Clinical Study Two; assay type: in vivo, human; conditions: for CDSS Total Score, Trt Effect / Change from Baseline in CDSS Total Score, Mean (SD) / Change from Baseline in CDSS Total Score, Median / mean change (SD) from Baseline to Endpoint in CDSS score: LOCF; for CDSS score, treatment effect (bifeprunox, placebo): Endpoint LOCF; for mean change (SD) from Baseline to Endpoint in CDSS score: ITT
Description: as §1, §2

[3] = Pooled metabolic analysis, 6-week studies: body weight; conditions: for ≧7% weight decrease, (%) / ≧7% weight increase, (%) / Weight, Mean (SD) change from baseline: 6-week placebo controlled trials, BX total doses, RISP 6 mg, OLZ 15 mg, HAL 10 mg; for Weight, Mean (SD) change from baseline: endpoint
Source text: OBJECTIVE: To examine the metabolic effects of bifeprunox in patients with acute and stable schizophrenia.
METHODS: Metabolic data was compiled from one 6-month and four 6-week studies (i.e., a treatment period) of bifeprunox in patients with stable and acute schizophrenia, respectively. In the 6-month study, patients received bifeprunox (n=331) or placebo (PBO) (n=166). […] Metabolic evaluations included body weight, body mass index (BMI), plasma glucose and lipid profiles. Fasting glucose and lipid values were assessed in one 6-week study and in the 6-month study. Triglyceride:HDL ratio (TG:HDL) was calculated as a marker of insulin resistance. No statistical analyses were performed; only descriptive statistics are presented.

For `O=c1[nH]c2cccc(N3CCN(Cc4cccc(-c5ccccc5)c4)CC3)c2o1` [Bifeprunox, 7-[4-([1,1′-biphenyl]-3-ylmethyl)-1-piperazinyl]-2(3H)-benzoxazolone], the “Change from Baseline in PANSS Negative Symptom Subscale Score, Median” value ([1]; Week 2) was −2, the “Change from Baseline in PANSS Negative Symptom Subscale Score, Mean (SD)” value ([1]; Week 3) was −2.2 (4.7) and the “Change from Baseline in PANSS Negative Symptom Subscale Score, Median” value ([1]; Week 3) was −1. For the same compound, the “Change from Baseline in PANSS Negative Symptom Subscale Score, Mean (SD)” value ([1]; Week 4) was −2.1 (4.9), the “Change from Baseline in PANSS Negative Symptom Subscale Score, Median” value ([1]; Week 4) was −1 and the “Change from Baseline in PANSS Negative Symptom Subscale Score, Mean (SD)” value ([1]; Week 6/Endpoint) was −2.2 (5.4). For the same compound, the “Change from Baseline in PANSS Negative Symptom Subscale Score, Median” value ([1]; Week 6/Endpoint) was −1, the “PANSS Negative Symptom Subscale Score, Trt Effect (bifeprunox—placebo)” value ([1]; Week 6/Endpoint, ANCOVA) was −0.9 and the “CDSS Total Score, Trt Effect” value ([2]; 30 mg versus placebo, Week 6/Endpoint) was −0.38. For the same compound, the “Change from Baseline in CDSS Total Score, Mean (SD)” value ([2]; 30 mg, Week 1) was −0.01 (2.90), the “Change from Baseline in CDSS Total Score, Median” value ([2]; 30 mg, Week 1) was 0.0 and the “Change from Baseline in CDSS Total Score, Mean (SD)” value ([2]; 30 mg, Week 2) was −0.51 (3.37). For the same compound, the “Change from Baseline in CDSS Total Score, Median” value ([2]; 30 mg, Week 2) was 0.0, the “Change from Baseline in CDSS Total Score, Mean (SD)” value ([2]; 30 mg, Week 3) was −0.51 (3.56) and the “Change from Baseline in CDSS Total Score, Median” value ([2]; 30 mg, Week 3) was 0.0. For the same compound, the “Change from Baseline in CDSS Total Score, Mean (SD)” value ([2]; 30 mg, Week 4) was −0.63 (3.48), the “Change from Baseline in CDSS Total Score, Median” value ([2]; 30 mg, Week 4) was 0.0 and the “Change from Baseline in CDSS Total Score, Mean (SD)” value ([2]; 30 mg, Week 6/Endpoint) was −0.66 (3.64). The “Change from Baseline in CDSS Total Score, Median” value ([2]; 30 mg, Week 6/Endpoint) was 0.0, the “CDSS Total Score, Trt Effect” value ([2]; 40 mg versus placebo, Week 6/Endpoint) was 0.29 and the “Change from Baseline in CDSS Total Score, Mean (SD)” value ([2]; 40 mg, Week 1) was −0.54 (2.56). The “Change from Baseline in CDSS Total Score, Median” value ([2]; 40 mg, Week 1) was 0.0, the “Change from Baseline in CDSS Total Score, Mean (SD)” value ([2]; 40 mg, Week 2) was −0.32 (2.95) and the “Change from Baseline in CDSS Total Score, Median” value ([2]; 40 mg, Week 2) was 0.0. For the same compound, the “Change from Baseline in CDSS Total Score, Mean (SD)” value ([2]; 40 mg, Week 3) was −0.44 (3.09), the “Change from Baseline in CDSS Total Score, Median” value ([2]; 40 mg, Week 3) was 0.0 and the “Change from Baseline in CDSS Total Score, Mean (SD)” value ([2]; 40 mg, Week 4) was −0.19 (3.32). The “Change from Baseline in CDSS Total Score, Median” value ([2]; 40 mg, Week 4) was 0.0, the “Change from Baseline in CDSS Total Score, Mean (SD)” value ([2]; 40 mg, Week 6/Endpoint) was 0.01 (3.66) and the “Change from Baseline in CDSS Total Score, Median” value ([2]; 40 mg, Week 6/Endpoint) was 0.0. For the same compound, the “CDSS score, treatment effect (bifeprunox, placebo)” value ([2]; bifeprunox 30 mg) was −0.38, the “mean change (SD) from Baseline to Endpoint in CDSS score” value ([2]; bifeprunox 30 mg) was −0.66 (3.64) and the “CDSS score, treatment effect (bifeprunox, placebo)” value ([2]; bifeprunox 40 mg) was 0.29. For the same compound, the “mean change (SD) from Baseline to Endpoint in CDSS score” value ([2]; bifeprunox 40 mg) was 0.01 (3.66), the “≧7% weight decrease, (%)” value ([3]; baseline BMI 18.5-25 kg/m^2) was 5.4% and the “≧7% weight increase, (%)” value ([3]; baseline BMI 18.5-25 kg/m^2) was 2.4%. For the same compound, the “≧7% weight decrease, (%)” value ([3]; baseline BMI <18.5 kg/m^2) was 3.7%, the “≧7% weight increase, (%)” value ([3]; baseline BMI <18.5 kg/m^2) was 3.7% and the “≧7% weight decrease, (%)” value ([3]; baseline BMI >25-30 kg/m^2) was 8.8%. The “≧7% weight increase, (%)” value ([3]; baseline BMI >25-30 kg/m^2) was 1.8%, the “≧7% weight decrease, (%)” value ([3]; baseline BMI >30 kg/m^2) was 5.8% and the “≧7% weight increase, (%)” value ([3]; baseline BMI >30 kg/m^2) was 1.4%. For the same compound, the “≧7% weight decrease, (%)” value ([3]; baseline BMI All) was 6.2%, the “≧7% weight increase, (%)” value ([3]; baseline BMI All) was 2.1% and the “Weight, Mean (SD) change from baseline” value ([3]; baseline BMI 18.5-25 kg/m^2) was −0.4 (2.6) kg. For the same compound, the “Weight, Mean (SD) change from baseline” value ([3]; baseline BMI <18.5 kg/m^2) was 0.0 (1.7) kg, the “Weight, Mean (SD) change from baseline” value ([3]; baseline BMI >25-30 kg/m^2) was −0.9 (3.2) kg and the “Weight, Mean (SD) change from baseline” value ([3]; baseline BMI >30 kg/m^2) was −1.4 (3.9) kg. The “Weight, Mean (SD) change from baseline” value ([3]; baseline BMI All) was −0. (3.2) kg, the mean weight decrease ([3]; 6-week studies, pooled) was 0.8 kg and the mean weight change ([3]; 6-week studies, pooled (overall summary)) was -0.8 kg. For the same compound, the “mean change in weight at endpoint” value ([3]; 6-week studies, patients with nausea or vomiting) was -1.7 kg and the “mean change in weight at endpoint” value ([3]; 6-week studies, patients without nausea or vomiting) was -0.4 kg.
